From article PMC12612973, “Inhibition of Human Amylin Aggregation: In Silico and In Vitro Studies” (ACS Omega, 2025)
Several values for one entry are separate records, joined by “and”; a condition that tells them apart may be missing. Equal values may be shown once.

What was measured:
human amylin (hIAPP) [1] = target: T1, human amylin (hIAPP) (Homo sapiens, UniProt P10997); assay: Thioflavin T (ThT) fluorescence assay of amylin aggregation; assay type: biochemical; details: for inhibition at 10 µM: read-out: ThT inhibition % (mean ± SEM), compound 10 μM, amylin 15 μM, 36 h incubation, 3 trials
T1 construct: purchased Bachem USA
T1 sequence (P10997 34-70 limits assumed): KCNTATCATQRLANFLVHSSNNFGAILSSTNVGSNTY
Method: (§1) A stock solution of amylin (1 mM) (purchased from Bachem USA), peptide sequence: […] amide (with disulfide bond between Cys2 and Cys7), was prepared in 100% hexafluoroisopropyl alcohol (HFIP) (purchased from Sigma-Aldrich) and stored at −20 °C. , Aliquots of amylin peptide were filtered through a 0.22 μm filter from the stock solution and freeze-dried. For kinetic experiments, 15 μM of amylin was prepared in 50 mM Tris-HCl buffer (pH 7.4), as investigated in previous studies by Chaari et al., , Samples of amylin were prepared in the presence or absence of inhibitors. Each compound was dissolved in DMSO and further diluted with the buffer used to solubilize the amylin. The final mixture contained 15 μM amylin, 10 μM of the test compound, 2% DMSO or 15 μM amylin, and 2% DMSO without the compound (negative control). Also 15 μM amylin, 10 μM of oleuropein aglycone and 2% DMSO was used as a positive control. The prepared solutions were incubated under physiological conditions (pH 7.4 and 37 °C) for amylin aggregation. Samples were incubated for 36 h to test for amylin aggregation, and measurements were conducted at different time points.
Amylin aggregation was monitored by characteristic changes in Thioflavin T (ThT) fluorescence intensity. A ThT stock solution (15 μM) was prepared in deionized water at pH 7.4. The amylin samples were mixed with the ThT solution and allowed to incubate. ThT fluorescence was measured using the PerkinElmer model LS 55 fluorescence spectrophotometer (PerkinElmer, USA), with an excitation wavelength of 440 nm and an emission wavelength of 480 nm. ,− The emission and excitation slits were set to 5 nm, and a 1 cm cuvette was used for all experiments. Nonspecific background fluorescence was subtracted from the samples using appropriate blanks in the absence of proteins. Each experiment was performed in triplicate.

human amylin (hIAPP) [2] = target: T1, human amylin (hIAPP); assay: Kinetic analysis of amylin aggregation (ThT, two-step autocatalytic aggregation model); assay type: biochemical; details: mean ± S.D.; for t 0 (time point when the aggregation starts): 10% of highest ThT fluorescence; for t 1/2 (aggregation halftime): 50% of highest ThT fluorescence; for t 1 (aggregation endpoint): 90% of highest ThT fluorescence; for k / k e (elongation constant) / k n (nucleation constant) / ρ (ratio of kn to k): ThT data, autocatalytic aggregation model
Method: Kinetic analysis was performed according to the model of autocatalytic aggregation. According to Sabaté et al., aggregation is a two-step process, comprising nucleation (described by the k n constant) and fibrillation phases (represented by the k e constant). Two constants (k n and k e) are calculated using the eq : 5 f=ρ{e^[(1+ρ)kt]−1}/{1+ρe^[(1+ρ)kt]} where k = k e a (where a represents the initial concentration of the aggregating peptide), f stands for a fraction of the fibrillar form in the system, and ρ denotes the dimensionless ratio of k n to k. The parameters k and ρ were calculated first, then k n and k e.
Data were normalized as a fraction of the highest fluorescence from the three trials and fitted into the model of autocatalytic aggregation. The same procedure was repeated for the remaining trials. The second calculation aimed to find the time parameters of the aggregation process: t 0 (time point when the aggregation starts), t 1/2 (aggregation halftime), and t 1 (aggregation endpoint). t 0, t 1/2, and t 1 were calculated as 10%, 50%, and 90% of the highest fluorescence measurements from the three trials, respectively. All calculations were performed using GraphPad Prism 9.5.1, Statistica 13.3.721.1, and Microsoft Excel 2304.

human amylin (hIAPP) [3] = target: T1, human amylin (hIAPP); assay: Thioflavin T (ThT) fluorescence assay of amylin aggregation; assay type: biochemical; details: read-out: IC50 of amylin aggregation inhibition
human amylin (hIAPP) [4] = target: T1, human amylin (hIAPP); assay: Dynamic light scattering (DLS) assay of amylin aggregation; assay type: biochemical; details: compound 10 μM, amylin 15 μM, 36 h incubation, 3 trials; read-out: DLS inhibition % (mean ± SEM)
Method: as §1
DLS (Zetasizer, Malvern) was used at a wavelength of 633 nm to measure the average diffusion coefficient distribution of amylin particles and the aggregation percentage. Samples were diluted 10-fold, and 50 μL was placed into a 96-well plate. The total light scattering intensity at a 90° angle was collected using a 10 s averaging acquisition time. Particle translational diffusion coefficients were calculated from autocorrelated light intensity data (usually 30–40 points) and converted to the hydrodynamic radius (R h) using the Stokes–Einstein equation. A distribution plot of intensity versus R h was calculated using the Sedfit 9.3 analysis software, and intensity-weighted mean R h values were obtained from each peak.

Aβ = test system: Aβ; set-up: method as in Panek et al.; details: ref Panek et al.; cited from earlier work

## C/C=C1/C(O)OC=C(C(=O)OC)[C@H]1CC(=O)OCCc1ccc(O)c(O)c1 (mixture of isomers) [Oleuropein aglycone, reference compound]
Human amylin (hIAPP) [1]; compound 10 μM, amylin 15 μM, 36 h incubation, 3 trials
  ThT inhibition % (mean ± SEM): 82.3 ± 2.0%
Human amylin (hIAPP) [2]
  t 0 (time point when the aggregation starts): 10.76 ± 0.25 h
  t 1/2 (aggregation halftime): 19.67 ± 0.31 h
  t 1 (aggregation endpoint): 28.83 ± 0.30 h
  k: 0.2366 ± 0.0075 h^–1
  k e (elongation constant): 15773 ± 650 M^–1h^–1
  k n (nucleation constant): 0.0022 ± 0.0005 h^–1
  ρ (ratio of kn to k): 0.0093 ± 0.0002
Human amylin (hIAPP) [2]; listed as oleuropein aglycone
  k e (elongation constant): 15773 M^–1h^–1
Human amylin (hIAPP) [3]
  IC50: 1000 nM

## CCCC(C)N1CCN(CC(O)CNCc2ccc(OC)cc2)CC1 (stereo not shown) [Compound 1]
Human amylin (hIAPP) [1]
  inhibition at 10 µM: 13.1 ± 1.8%
Human amylin (hIAPP) [4]
  inhibition at 10 µM: 19.7 ± 2%

## COc1ccc(CNCC(O)CN2CCN(c3ccccc3)CC2)cc1 (stereo not shown) [Compound 2]
Human amylin (hIAPP) [1]
  inhibition at 10 µM: 5 ± 0.7%
Human amylin (hIAPP) [4]
  inhibition at 10 µM: 6.9 ± 0.5%

## COc1ccc(CNCC(O)CN2CCN(Cc3ccccc3)CC2)cc1 (stereo not shown) [Compound 3]
Human amylin (hIAPP) [1]
  inhibition at 10 µM: 8.8 ± 4.9%
Human amylin (hIAPP) [4]
  inhibition at 10 µM: 17.9 ± 1.4%

## OC(CNCc1ccccc1)CN1CCN(C(c2ccccc2)c2ccccc2)CC1 (stereo not shown) [Compound 4]
Human amylin (hIAPP) [1]
  inhibition at 10 µM: 15.5 ± 0.7%
Human amylin (hIAPP) [4]
  inhibition at 10 µM: 20 ± 1.9%

## COc1ccc(CNCC(O)CN2CCN(C(c3ccccc3)c3ccccc3)CC2)cc1 (stereo not shown) [Compound 5]
Human amylin (hIAPP) [1]
  inhibition at 10 µM: 12.1 ± 1.1%
Human amylin (hIAPP) [4]
  inhibition at 10 µM: 19.5 ± 2.2%

## CC(C)(C)c1cccc(CNCC(O)CN2CCN(C(c3ccccc3)c3ccccc3)CC2)c1 (stereo not shown) [Compound 6]
Human amylin (hIAPP) [1]
  inhibition at 10 µM: > 50%
Human amylin (hIAPP) [4]
  inhibition at 10 µM: 30.3 ± 3.1%
Human amylin (hIAPP) [2]
  t 0 (time point when the aggregation starts): 8.36 ± 0.56 h
  t 1/2 (aggregation halftime): 16.61 ± 0.27 h
  t 1 (aggregation endpoint): 25.27 ± 0.39 h
  k: 0.2488 ± 0.0157 h^–1
  k e (elongation constant): 16585 M^–1h^–1 and 16585 ± 1051 M^–1h^–1
  k n (nucleation constant): 0.0039 ± 0.0009 h^–1
  ρ (ratio of kn to k): 0.0159±0.0044
Human amylin (hIAPP) [3]
  IC50: 4110 nM
Aβ
  inhibition of Aβ aggregation in the ThT assay: 77.2%

## COc1ccc(CNCC(O)CN2CCN(C(c3ccc(F)cc3)c3ccc(F)cc3)CC2)cc1 (stereo not shown) [Compound 7]
Human amylin (hIAPP) [1]
  inhibition at 10 µM: 17 ± 0.7%
Human amylin (hIAPP) [4]
  inhibition at 10 µM: 18.6 ± 1.4%

## CCCC(C)N1CCN(CCC(O)CNCc2ccc(OC)cc2)CC1 (stereo not shown) [Compound 8]
Human amylin (hIAPP) [1]
  inhibition at 10 µM: 20.8 ± 1%
Human amylin (hIAPP) [4]
  inhibition at 10 µM: 20.1 ± 2%

## COc1ccc(CNCC(O)CCN2CCN(c3ccccc3)CC2)cc1 (stereo not shown) [Compound 9]
Human amylin (hIAPP) [1]
  inhibition at 10 µM: 4.3 ± 0.7%
Human amylin (hIAPP) [4]
  inhibition at 10 µM: 10 ± 0.5%
